Measured values from patent EP0388909A2, “Thiazole compounds, processes for the preparation thereof and pharmaceutical composition comprising the same” (FUJISAWA PHARMACEUTICAL CO., LTD., priority 1989, dated 1990).
Counter-ions that a name gives are not always drawn. One block for each molecule: values may come before it.

Key:
cyclooxygenase = target: T1, cyclooxygenase (Oryctolagus cuniculus, UniProt O97554); assay: Effect on malondialdehyde (MDA) production in rabbit platelets; format: cell-based; details: dose required to inhibit the production of malondialdehyde by 50%; washed rabbit PRP, arachidonic acid added; read-out: IC₅₀
T1 construct: Washed rabbit PRP (900 µl) was preincubated with drug solution; endogenous in cells; host or cells: washed rabbit platelets (PRP)
T1 sequence (O97554 31-606): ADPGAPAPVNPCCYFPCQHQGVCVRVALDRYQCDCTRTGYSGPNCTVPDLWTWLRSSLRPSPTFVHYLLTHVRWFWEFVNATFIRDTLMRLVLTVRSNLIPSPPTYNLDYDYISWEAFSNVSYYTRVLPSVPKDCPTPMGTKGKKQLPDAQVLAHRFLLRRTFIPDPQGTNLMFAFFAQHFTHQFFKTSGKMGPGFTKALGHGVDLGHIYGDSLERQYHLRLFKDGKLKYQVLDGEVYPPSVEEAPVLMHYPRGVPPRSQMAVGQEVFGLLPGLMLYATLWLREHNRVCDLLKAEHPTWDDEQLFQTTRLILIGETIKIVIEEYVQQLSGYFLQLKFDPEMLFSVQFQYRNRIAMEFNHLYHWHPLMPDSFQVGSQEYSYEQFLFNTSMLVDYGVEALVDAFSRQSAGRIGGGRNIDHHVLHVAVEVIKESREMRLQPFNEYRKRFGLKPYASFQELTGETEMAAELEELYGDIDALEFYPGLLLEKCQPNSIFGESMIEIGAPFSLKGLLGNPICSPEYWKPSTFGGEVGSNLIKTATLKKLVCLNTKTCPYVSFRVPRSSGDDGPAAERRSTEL
Experimental: Washed rabbit PRP (900 µl) was preincubated with drug solution (dissolved in dimethyl sulfoxide) (100 µl) at 37°C for 5 minutes. Then, 2.5 mM arachidonic acid solution (20 µl) was added to the reaction mixture. After 3 minutes, thiobarbiturate reagent (1000 µl) was added, and the reaction mixture was heated in a boiled water. After centrifugation at 1500 g for 10 minutes, the absorbance of suparnatant was measured at 532 nm. This test was carried out to see inhibitory activity of the test compound against the activity of cyclooxygenase. Activity of the test compound was expressed as IC₅₀ values i.e. doses required to inhibit the production of malondialdehyde by 50%.

isolated rat aorta = assay: Relaxation effect on isolated rat aorta (KCl-induced contraction); details: dose required to relax the isolated rat aorta by 50%; contraction induced by KCl 30 mM; maximum relaxation by 10⁻⁴M papaverine; read-out: ED₅₀
Experimental: Helical strip of rat thoracic aorta was suspended in the organ bath containing Tyrode solution gassed with 95% O₂ - 5% CO₂ at 37°C under 0.5 g load. Contraction was induced by addition of KCℓ solution (final concentration was 30 mM). […] Activities of the test compound were expressed as ED₅₀ values i.e. doses required to relax the isolated rat aorta by 50%.

PRP = assay: Platelet aggregation ex vivo (arachidonic acid induced, PRP after oral dosing); format: in vivo; details: Cavia porcellus, 6 h, Dose 1.0 mg/kg oral, blood collected six hours after administration, arachidonic acid final 50 µM as aggregation inducer, male Hartley guinea-pigs
Experimental: Male Hartley guinea-pigs weighing about 300 g were used after 24 hours fasting. Six hours after oral administration of the test compound or vehicle of test compound (control), blood was collected into a tube containing 0.1 vol. of 3.8% sodium citrate and prepared platelet rich plasma (PRP).
To the […] of PRP, 5 µl of arachidonic acid (final 50 µM) was added as an aggregation inducer. Aggregation was measured by using an aggregometer (NKK HEMA-TRACER 1).

human washed platelets = assay: Thrombin induced aggregation in human washed platelets; format: cell-based; details: Concentration 1.0 x 10⁻⁵ M; thrombin final conc. 0.3-0.5 U/ml
Experimental: Blood was drawn from healthy volunteers into a plastic tube containing 1/10 volume of 3.8% sodium citrate and centrifuged at 120 g for 10 minutes to obtain platelet rich plasma (PRP). An equal volume of 25 mM Tris-HCl buffer (pH 7.4) containing 130 mM NaCl and 1.5 mM EDTA (buffer A) was added to the PRP, mixed and centrifuged at 1500 g for 10 minutes. The platelet pellet was suspended in buffer A and centrifuged at 1500 g for 5 minutes. The platelets were resuspended in 25 mM Tris-HCl buffer (pH 7.4) containing 130 mM NaCl and 0.3 mM EDTA and recentrifuged at 1500 g for 5 minutes. The platelets were finally suspended in Tyrode solution containing 0.3 % bovine serum albumin and the platelet count was adjusted to 3 x 10⁸/ml. To 247.5 µl of platelet suspension, 2.5 µl of drug solution was added and incubated for 2 minutes at 37°C prior to addition of thrombin solution (final conc. 0.3-0.5 U/ml). Platelet aggregation was turbidometrically measured using a HEMA-TRACER 1.

IC50 (cyclooxygenase): 0.015 µM
SMILES: COc1ccc(-c2nc(CNC(C)=O)sc2-c2ccc(OC)cc2)cc1 [Example 1, 2-acetylaminomethyl-4,5-bis(4-methoxyphenyl)thiazole]

SMILES: COc1ccc(-c2nc(CNC(=O)C3=NNC(=O)CC3)sc2-c2ccc(OC)cc2)cc1 [Example 15, 4,5-bis(4-methoxyphenyl)-2-{(6-oxo-1,4,5,6-tetrahydropyridazin-3-yl)carbonyiaminomethyl}thiazole]
EC50 (isolated rat aorta): 7.3 µM
inhibition at 1 mg/kg (PRP): 100%

EC50 (isolated rat aorta): 8.2 µM
SMILES: COc1ccc(-c2nc(CNC(=O)c3cccnc3)sc2-c2ccc(OC)cc2)cc1 [Example 19, 4,5-bis(4-methoxyphenyl)-2-(nicotinoylaminomethyl)thiazole hydrochloride]

SMILES: CNC(=O)NCc1nc(-c2ccc(OC)cc2)c(-c2ccc(OC)cc2)s1 [Example 24, 4,5-Bis(4-methoxyphenyl)-2-(3-methylureidomethyl)thiazole]
Inhibition of the aggregation (%) (human washed platelets): 71.3%
